Experimental data from patent US20120190868A1, “SUBSTITUTED BENZOCHALCOGENOACENE COMPOUND, THIN FILM COMPRISING THE COMPOUND, AND ORGANIC SEMICONDUCTOR DEVICE INCLUDING THE THIN FILM” (NATIONAL UNIVERSITY CORPORATION NAGOYA UNIVERSITY, priority 2009, published 2012).

Experiment: Solubility of the compound in a solvent (preparation of solution composition)
Type: physicochemical
Experimental: The solution composition containing the compound [5] in 0.5 wt % concentration was prepared by dissolving the compound [5] manufactured in Example 1 in tetrahydrofuran.
On the substrate obtained by a similar procedure to Example 8, a 0.5 wt % dichlorobenzene solution of the compound [14] heated at 100° C. was applied by the spin coating method and dried on a hot plate of 120° C. for 30 minutes to result in the formation of a thin film containing the compound and having a thickness of about 30 nm.

Row | concentration of solution of the compound (solubility in a solvent) (dichlorobenzene, heated at 100° C.) [wt %] | concentration of solution composition prepared by dissolving the compound (solubility in a solvent) (tetrahydrofuran) [wt %] | Compound
1 | 0.5 | – | CCCCCCCCCCCCc1ccc2c(c1)sc1c2sc2c3ccc(CCCCCCCCCCCC)cc3sc21 [[14]]
2 | – | 0.5 | CCCCCCc1ccc2c(c1)sc1c2sc2c3ccc(CCCCCC)cc3sc21 [[5]]
